Assay results taken from ChEMBL document CHEMBL5233281, “Design, synthesis and biological evaluation of novel 1,3,4,9-tetrahydropyrano[3,4-b]indoles as potential treatment of triple negative breast cancer by suppressing PI3K/AKT/mTOR pathway” (Bioorg Med Chem, 2021).
pIC50: −log10 of the molar value. The source made the active and inactive calls. The calls are words filed in the database; no cut-off is given here.

Experiments:
[1] = test system: MCF7; experiment: Antiproliferative activity against human MCF7 cells assessed as inhibition of cell growth incubated for 72 hrs by CCK8 assay; type: functional, cell-based; details: MCF7, 72 h
[2] = test system: MDA-MB-231; experiment: Antiproliferative activity against human MDA-MB-231 cells assessed as inhibition of cell growth incubated for 72 hrs by CCK8 assay; type: functional, cell-based; details: MDA-MB-231, 72 h
[3] = test system: MDA-MB-231; experiment: Induction of cell cycle arrest in human MDA-MB-231 cells assessed as accumulation of cells at G0/G1 phase at 2 uM incubated for 48 hrs by PI staining based flow cytometry (reference value: 48.33%); type: functional
[4] = test system: MDA-MB-231; experiment: Induction of apoptosis in human MDA-MB-231 cells assessed as increase in Bax protein expression measured after 48 hrs by western blot analysis; type: functional, cell-based; details: dose 1-4 µM
[5] = test system: MDA-MB-231; experiment: Induction of apoptosis in human MDA-MB-231 cells assessed as increase in cleaved caspase-8 protein expression at 1 to 4 uM incubated for 48 hrs by western blot analysis; type: functional, cell-based; details: dose 1-4 µM
[6] = test system: MDA-MB-231; experiment: Induction of reactive oxygen species generation in human MDA-MB-231 cells incubated for 24 hrs by DCFH-DA staining based flow cytometry; type: functional, cell-based; details: dose 1-4 µM
[7] = test system: MDA-MB-231; experiment: Downregulation of mTOR protein expression in human MDA-MB-231 cells incubated for 48 hrs by western blot analysis; type: functional, cell-based; details: dose 1-4 µM
[8] = Inhibition of PI3K/Akt/mTOR signaling in human MDA-MB-231 cells assessed as reduction in Akt phosphorylation at Ser473 residue incubated for 48 hrs by western blot analysis; type: cell-based; details: dose 1-4 µM
[9] = Inhibition of PI3K/Akt/mTOR signaling in human MDA-MB-231 cells assessed as reduction in mTOR phosphorylation at Ser2448 residue incubated for 48 hrs by western blot analysis; type: cell-based; details: dose 1-4 µM
[10] = Inhibition of PI3K/Akt/mTOR signaling in human MDA-MB-231 cells assessed as reduction in mTOR phosphorylation at Ser2481 residue incubated for 48 hrs by western blot analysis; type: cell-based; details: dose 1-4 µM
[11] = Inhibition of PI3K/Akt/mTOR signaling in human MDA-MB-231 cells assessed as upregulation of PTEN expression incubated for 48 hrs by western blot analysis; type: cell-based; details: dose 1-4 µM
[12] = test system: MDA-MB-231; experiment: Downregulation of Akt protein expression in human MDA-MB-231 cells at 2 uM incubated for 72 hrs in presence of IGF-1 by western blot analysis; type: functional, cell-based
[13] = Inhibition of PI3K/Akt/mTOR signaling in human MDA-MB-231 cells assessed as reduction in Akt phosphorylation at Thr308 residue at 2 uM incubated for 72 hrs in presence of IGF-1 by western blot analysis; type: cell-based
[14] = Inhibition of PI3K/Akt/mTOR signaling in human MDA-MB-231 cells assessed as reduction in mTOR phosphorylation at Ser2448 residue at 2 uM incubated for 72 hrs by western blot analysis; type: cell-based

Molecule `Fc1cc(F)cc(C2OCCc3c2[nH]c2ccccc32)c1` (centres undefined) has a pIC50 [1] of 5.10, a pIC50 [2] of 5.64 and an Activity [3] of 64%. For the same molecule, the Activity [4] was “Dose-Dependent Effect”, the Activity [5] was “Active” and the Activity [6] was “Dose-Dependent Effect”. For the same molecule, the inhibition [7] was “Dose-Dependent Effect”, the inhibition [8] was “Dose-Dependent Effect” and the inhibition [9] was “Dose-Dependent Effect”. The inhibition [10] was “Dose-Dependent Effect”, the inhibition [11] was “Dose-Dependent Effect” and the inhibition [12] was “inactive”. For the same molecule, the inhibition [13] was “inactive” and the inhibition [14] was “inactive”.
